According to PMC12102759 (Protein Science : A Publication of the Protein Society, 2025):
Where two headings read alike, the source gives them in different places.

System: PABPC1 PABC
Format: binding, human
Details: DMS-BM library, bait PABPC1 PABC, row aa = residue at this position; for DMS-derived PSSM value, position R12 / DMS-derived PSSM value (averaged), position R12 / DMS-derived PSSM value, position R14: R = wild type; for DMS-derived PSSM value (averaged), position L2 / DMS-derived PSSM value, position L2 / DMS-derived PSSM value, position L4: L = wild type
[1] = prey ATXN2, peptide TLNPNAKEFNPRSFSQ, F = wild type
[2] = prey ATXN2, TLNPNAKEFNPRSF(averaged) over the two overlapping peptides, T = wild type
[3] = prey ATXN2, peptide KSTLNPNAKEFNPRSF, S = wild type
[4] = prey ATXN2, peptide TLNPNAKEFNPRSFSQ
[5] = prey ATXN2, TLNPNAKEFNPRSF(averaged) over the two overlapping peptides
[6] = prey ATXN2, peptide TLNPNAKEFNPRSFSQ, N = wild type
[7] = prey ATXN2, peptide KSTLNPNAKEFNPRSF, K = wild type
[8] = prey ATXN2, TLNPNAKEFNPRSF(averaged) over the two overlapping peptides, P = wild type
[9] = prey ATXN2, TLNPNAKEFNPRSF(averaged) over the two overlapping peptides, N = wild type
[10] = prey ATXN2, peptide TLNPNAKEFNPRSFSQ, E = wild type
[11] = prey ATXN2, peptide KSTLNPNAKEFNPRSF
[12] = prey ATXN2, peptide TLNPNAKEFNPRSFSQ, P = wild type
[13] = prey ATXN2, peptide KSTLNPNAKEFNPRSF, T = wild type
[14] = prey ATXN2, TLNPNAKEFNPRSF(averaged) over the two overlapping peptides, F = wild type
[15] = prey ATXN2, TLNPNAKEFNPRSF(averaged) over the two overlapping peptides, K = wild type
[16] = prey ATXN2, TLNPNAKEFNPRSF(averaged) over the two overlapping peptides, S = wild type
[17] = prey ATXN2, peptide KSTLNPNAKEFNPRSF, N = wild type

TLNPNAKEFNPRSFSQ F9I (TLNPNAKEINPRSFSQ)
DMS-derived PSSM value, position F9 [1]: 0

TLNPNAKEFNPRSF(averaged) T1Q (QLNPNAKEFNPRSF)
DMS-derived PSSM value (averaged), position T1 [2]: 0.003845

KSTLNPNAKEFNPRSF S2F (KFTLNPNAKEFNPRSF)
DMS-derived PSSM value, position S2 [3]: 0.06555

TLNPNAKEFNPRSFSQ R12T (TLNPNAKEFNPTSFSQ)
DMS-derived PSSM value, position R12 [4]: 0.06242

TLNPNAKEFNPRSFSQ T1A (ALNPNAKEFNPRSFSQ)
DMS-derived PSSM value, position T1 (prey ATXN2, peptide TLNPNAKEFNPRSFSQ, T = wild type): 0.03403

TLNPNAKEFNPRSF(averaged) L2V (TVNPNAKEFNPRSF)
DMS-derived PSSM value (averaged), position L2 [5]: 0.005447

TLNPNAKEFNPRSF(averaged) R12F (TLNPNAKEFNPFSF)
DMS-derived PSSM value (averaged), position R12 [5]: 0.0319

TLNPNAKEFNPRSFSQ N3R (TLRPNAKEFNPRSFSQ)
DMS-derived PSSM value, position N3 [6]: 0.02401

KSTLNPNAKEFNPRSF S15H (KSTLNPNAKEFNPRHF)
DMS-derived PSSM value, position S15 [3]: 0.1165

KSTLNPNAKEFNPRSF K9M (KSTLNPNAMEFNPRSF)
DMS-derived PSSM value, position K9 [7]: 0.1105

TLNPNAKEFNPRSF(averaged) P4G (TLNGNAKEFNPRSF)
DMS-derived PSSM value (averaged), position P4 [8]: 0.00705

KSTLNPNAKEFNPRSF F11P (KSTLNPNAKEPNPRSF)
DMS-derived PSSM value, position F11 (prey ATXN2, peptide KSTLNPNAKEFNPRSF, F = wild type): 0

TLNPNAKEFNPRSF(averaged) N3I (TLIPNAKEFNPRSF)
DMS-derived PSSM value (averaged), position N3 [9]: 0

TLNPNAKEFNPRSFSQ E8A (TLNPNAKAFNPRSFSQ)
DMS-derived PSSM value, position E8 [10]: 0.02248

KSTLNPNAKEFNPRSF S15E (KSTLNPNAKEFNPREF)
DMS-derived PSSM value, position S15 [3]: 0.02092

TLNPNAKEFNPRSF(averaged) N3M (TLMPNAKEFNPRSF)
DMS-derived PSSM value (averaged), position N3 [9]: 0

KSTLNPNAKEFNPRSF P6H (KSTLNHNAKEFNPRSF)
DMS-derived PSSM value, position P6 (prey ATXN2, peptide KSTLNPNAKEFNPRSF, P = wild type): 0.01713

TLNPNAKEFNPRSFSQ N5S (TLNPSAKEFNPRSFSQ)
DMS-derived PSSM value, position N5 [6]: 0.00244

TLNPNAKEFNPRSFSQ L2V (TVNPNAKEFNPRSFSQ)
DMS-derived PSSM value, position L2 [4]: 0

KSTLNPNAKEFNPRSF K9I (KSTLNPNAIEFNPRSF)
DMS-derived PSSM value, position K9 [7]: 0.4039

TLNPNAKEFNPRSFSQ L2A (TANPNAKEFNPRSFSQ)
DMS-derived PSSM value, position L2 [4]: 0

TLNPNAKEFNPRSFSQ F9S (TLNPNAKESNPRSFSQ)
DMS-derived PSSM value, position F9 [1]: 0

KSTLNPNAKEFNPRSF R14L (KSTLNPNAKEFNPLSF)
DMS-derived PSSM value, position R14 [11]: 0.02501

KSTLNPNAKEFNPRSF L4Q (KSTQNPNAKEFNPRSF)
DMS-derived PSSM value, position L4 [11]: 0

TLNPNAKEFNPRSFSQ P4M (TLNMNAKEFNPRSFSQ)
DMS-derived PSSM value, position P4 [12]: 0.001164

TLNPNAKEFNPRSF(averaged) T1D (DLNPNAKEFNPRSF)
DMS-derived PSSM value (averaged), position T1 [2]: 0.05337

KSTLNPNAKEFNPRSF T3Q (KSQLNPNAKEFNPRSF)
DMS-derived PSSM value, position T3 [13]: 0

TLNPNAKEFNPRSF
DMS-derived PSSM value (averaged), position A6 (prey ATXN2, TLNPNAKEFNPRSF(averaged) over the two overlapping peptides, A = wild type): 0.4881 | DMS-derived PSSM value (averaged), position E8 (prey ATXN2, TLNPNAKEFNPRSF(averaged) over the two overlapping peptides, E = wild type): 0.1343 | DMS-derived PSSM value (averaged), position F9 [14]: 0.3018 | DMS-derived PSSM value (averaged), position F14 [14]: 0.06062 | DMS-derived PSSM value (averaged), position K7 [15]: 0.01034 | DMS-derived PSSM value (averaged), position L2 [5]: 0.5343 | DMS-derived PSSM value (averaged), position N3 [9]: 0.5964 | DMS-derived PSSM value (averaged), position N5 [9]: 0.0195 | DMS-derived PSSM value (averaged), position N10 [9]: 0.05544 | DMS-derived PSSM value (averaged), position P4 [8]: 0.1195 | DMS-derived PSSM value (averaged), position P11 [8]: 0.04091 | DMS-derived PSSM value (averaged), position R12 [5]: 0.02883 | DMS-derived PSSM value (averaged), position S13 [16]: 0.05759 | DMS-derived PSSM value (averaged), position T1 [2]: 0.0418

TLNPNAKEFNPRSFSQ N10T (TLNPNAKEFTPRSFSQ)
DMS-derived PSSM value, position N10 [6]: 0.03853

TLNPNAKEFNPRSFSQ E8H (TLNPNAKHFNPRSFSQ)
DMS-derived PSSM value, position E8 [10]: 0.0374

TLNPNAKEFNPRSFSQ E8F (TLNPNAKFFNPRSFSQ)
DMS-derived PSSM value, position E8 [10]: 0

TLNPNAKEFNPRSF(averaged) N5E (TLNPEAKEFNPRSF)
DMS-derived PSSM value (averaged), position N5 [9]: 0.01598

TLNPNAKEFNPRSF(averaged) S13G (TLNPNAKEFNPRGF)
DMS-derived PSSM value (averaged), position S13 [16]: 0.08376

TLNPNAKEFNPRSF(averaged) F14T (TLNPNAKEFNPRST)
DMS-derived PSSM value (averaged), position F14 [14]: 0.01392

TLNPNAKEFNPRSF(averaged) T1W (WLNPNAKEFNPRSF)
DMS-derived PSSM value (averaged), position T1 [2]: 0.008583

TLNPNAKEFNPRSF(averaged) P11A (TLNPNAKEFNARSF)
DMS-derived PSSM value (averaged), position P11 [8]: 0.00277

KSTLNPNAKEFNPRSF N5L (KSTLLPNAKEFNPRSF)
DMS-derived PSSM value, position N5 [17]: 0

KSTLNPNAKEFNPRSF R14S (KSTLNPNAKEFNPSSF)
DMS-derived PSSM value, position R14 [11]: 0.06387

KSTLNPNAKEFNPRSF L4A (KSTANPNAKEFNPRSF)
DMS-derived PSSM value, position L4 [11]: 0

KSTLNPNAKEFNPRSF T3D (KSDLNPNAKEFNPRSF)
DMS-derived PSSM value, position T3 [13]: 0.0007076

TLNPNAKEFNPRSF(averaged) K7D (TLNPNADEFNPRSF)
DMS-derived PSSM value (averaged), position K7 [15]: 0.01005

TLNPNAKEFNPRSFSQ R12G (TLNPNAKEFNPGSFSQ)
DMS-derived PSSM value, position R12 [4]: 0.02158

TLNPNAKEFNPRSFSQ N5Y (TLNPYAKEFNPRSFSQ)
DMS-derived PSSM value, position N5 [6]: 0.002973

TLNPNAKEFNPRSFSQ S13F (TLNPNAKEFNPRFFSQ)
DMS-derived PSSM value, position S13 (prey ATXN2, peptide TLNPNAKEFNPRSFSQ, S = wild type): 0.004247

TLNPNAKEFNPRSF(averaged) N5A (TLNPAAKEFNPRSF)
DMS-derived PSSM value (averaged), position N5 [9]: 0.00733

KSTLNPNAKEFNPRSF N12Q (KSTLNPNAKEFQPRSF)
DMS-derived PSSM value, position N12 [17]: 0.02863

TLNPNAKEFNPRSF(averaged) N3F (TLFPNAKEFNPRSF)
DMS-derived PSSM value (averaged), position N3 [9]: 0

TLNPNAKEFNPRSFSQ F9E (TLNPNAKEENPRSFSQ)
DMS-derived PSSM value, position F9 [1]: 0.05407

KSTLNPNAKEFNPRSF A8E (KSTLNPNEKEFNPRSF)
DMS-derived PSSM value, position A8 (prey ATXN2, peptide KSTLNPNAKEFNPRSF, A = wild type): 0

KSTLNPNAKEFNPRSF T3P (KSPLNPNAKEFNPRSF)
DMS-derived PSSM value, position T3 [13]: 0.005473

KSTLNPNAKEFNPRSF S2M (KMTLNPNAKEFNPRSF)
DMS-derived PSSM value, position S2 [3]: 0.2211

KSTLNPNAKEFNPRSF S15N (KSTLNPNAKEFNPRNF)
DMS-derived PSSM value, position S15 [3]: 0.1002

KSTLNPNAKEFNPRSF L4S (KSTSNPNAKEFNPRSF)
DMS-derived PSSM value, position L4 [11]: 0

KSTLNPNAKEFNPRSF S2E (KETLNPNAKEFNPRSF)
DMS-derived PSSM value, position S2 [3]: 0.01242

TLNPNAKEFNPRSFSQ N3A (TLAPNAKEFNPRSFSQ)
DMS-derived PSSM value, position N3 [6]: 0

TLNPNAKEFNPRSFSQ P11K (TLNPNAKEFNKRSFSQ)
DMS-derived PSSM value, position P11 [12]: 0

TLNPNAKEFNPRSFSQ A6F (TLNPNFKEFNPRSFSQ)
DMS-derived PSSM value, position A6 (prey ATXN2, peptide TLNPNAKEFNPRSFSQ, A = wild type): 0

TLNPNAKEFNPRSFSQ K7H (TLNPNAHEFNPRSFSQ)
DMS-derived PSSM value, position K7 (prey ATXN2, peptide TLNPNAKEFNPRSFSQ, K = wild type): 0.02911

TLNPNAKEFNPRSF(averaged) T1M (MLNPNAKEFNPRSF)
DMS-derived PSSM value (averaged), position T1 [2]: 0.04356

TLNPNAKEFNPRSF(averaged) P11S (TLNPNAKEFNSRSF)
DMS-derived PSSM value (averaged), position P11 [8]: 0.02695
